# Assay results: article PMC11705089 (Nucleic Acids Research, 2025)
# Positions count from the first letter of the chain named.
# Tests used:
# DgoR (WT DgoR-6XHis) [1] = molecular target: T1, DgoR (WT DgoR-6XHis) (Escherichia coli, UniProt P31460, S171L); assay: label-free microscale thermophoresis; type: binding
# T1 sequence (P31460 1-229 S171L): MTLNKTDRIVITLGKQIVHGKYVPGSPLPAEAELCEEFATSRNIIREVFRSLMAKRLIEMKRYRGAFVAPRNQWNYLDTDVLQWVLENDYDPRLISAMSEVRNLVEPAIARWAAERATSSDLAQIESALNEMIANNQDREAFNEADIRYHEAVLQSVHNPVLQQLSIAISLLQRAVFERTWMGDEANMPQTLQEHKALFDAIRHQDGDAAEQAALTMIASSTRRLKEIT
# DgoR (WT DgoR-6XHis) [2] = molecular target: T2, DgoR (WT DgoR-6XHis) (Escherichia coli, UniProt P31460); assay: label-free microscale thermophoresis; type: binding
# T2 sequence (P31460 1-229): T1 sequence (P31460 1-229 S171L) with L171S
# DgoR (WT DgoR-6XHis) [3] = molecular target: T3, DgoR (WT DgoR-6XHis) (Escherichia coli, UniProt P31460, M188I); assay: label-free microscale thermophoresis; type: binding
# T3 sequence (P31460 1-229 M188I): T1 sequence (P31460 1-229 S171L) with L171S, M188I
# DgoR (WT DgoR-6XHis) [4] = molecular target: T4, DgoR (WT DgoR-6XHis) (Escherichia coli, UniProt P31460, A97V); assay: label-free microscale thermophoresis; type: binding
# T4 sequence (P31460 1-229 A97V): T1 sequence (P31460 1-229 S171L) with A97V, L171S
# [5] = molecular target: DgoR-6XHis (wild-type DgoR, transcriptional repressor of D-galactonate metabolism in Escherichia coli) (Escherichia coli) (UniProt P31460); assay: SEC
Kd (DgoR (WT DgoR-6XHis) [1]) [µM],Kd (DgoR (WT DgoR-6XHis) [2]) [µM],Kd (DgoR (WT DgoR-6XHis) [3]) [µM],Kd (DgoR (WT DgoR-6XHis) [4]) [µM],stoichiometry N [5],Compound
20.1 ± 0.6,8.4 ± 1.3,11.3 ± 0.9,3.3 ± 0.3,,O=C(O)[C@H](O)[C@@H](O)[C@@H](O)[C@H](O)CO [D-galactonate]
,,,,2,"DgoR-6XHis (wild-type DgoR, transcriptional repressor of D-galactonate metabolism in Escherichia coli) (from UniProt P31460 1-229) (natural protein)"
